Laboratory results from US20080096967A1, “Formulations for Injection of Catecholic Butanes, Including Ndga Compounds, Into Animals” (priority 2005, published 2008).

Key:
[1] = Solubility of M4N in water-insoluble lipids (visual inspection); format: physicochemical; settings: for solutions stable: corn oil; for stable at room temperature: sesame oil
[2] = M4N stability in 11-14 mg/mL PEG300/HP-β-CD solutions at room temperature (RP-HPLC); format: physicochemical; settings: for Observed M4N: room temperature
Experimental: To support manufacturing specifications, this study examined the 24-hour room temperature stability of combinations of PEG300/HP-β-CD at varying M4N target concentrations. Stock samples of M4N stocks were prepared in 100% PEG 300 at drug concentrations of 33-56 mg/mL at 60° C. as follows.
M4N bulk drug was solubilized to concentrations of 33, 44, 48, 52, 55 and 56 mg/mL (w/w) in PEG 300 using the procedure set forth in Examples 13 and 16, following incubation of at least 2 hours at 60° C. Vigorous vortexing and mixing were necessary for complete solubilization of M4N above 44 mg/mL. The M4N stock solutions were filtered through a 0.45 μm SFCA filter and used within 30 minutes of preparation. Separately, a solution of 40% (w/v) HP-β-CD was prepared in sterile WFI and filtered. Combinations of the 40% HP-β-CD stock and the M4N/PEG 300 stocks were combined in 1.5 mL polypropylene microtubes.
The requisite amount of M4N stock was added to 40% HP-β-CD to yield the final concentrations of drug and excipients listed in Table 28. Samples were gently rotated (˜12 rpm) at room temperature. At 2 and 24 hours of incubation, samples were centrifuged 2 minutes at 13,000 rpm and 50 μL aliquots were removed for RP-HPLC analysis.

## COc1ccc(C[C@@H](C)[C@@H](C)Cc2ccc(OC)c(OC)c2)cc1OC [Formulation M4N, meso-1,4-bis(3,4-dimethoxyphenyl)-2,3-dimethylbutane]
[1]; 100% Corn Oil, M4N 60 mg/mL, 60° C.
  Dissolution After Heating: Y at 60 °C
[1]; 100% Corn Oil, M4N 100 mg/mL, 60° C.
  Dissolution After Heating: Y at 60 °C
[1]; 100% Mineral Oil, M4N 10 mg/mL
  Stability Time at Room Temperature: >7 days
[1]; 100% Mineral Oil, M4N 10 mg/mL, 60° C.
  Dissolution After Heating: Y at 60 °C
[1]; 100% Mineral Oil, M4N 50 mg/mL
  Stability Time at Room Temperature: <1 days
[1]; 100% Mineral Oil, M4N 50 mg/mL, 60° C.
  Dissolution After Heating: Y at 60 °C
[1]; 100% Mineral Oil, M4N 100 mg/mL, 60° C.
  Dissolution After Heating: Y at 60 °C
[1]; 100% Mineral Oil, M4N 200 mg/mL, 60° C.
  Dissolution After Heating: Y at 60 °C
[1]; 100% Olive Oil, M4N 30 mg/mL, 60° C.
  Dissolution After Heating: Y at 60 °C
[1]; 100% Sesame Oil, M4N 10 mg/mL
  Stability Time at Room Temperature: >3 days
[1]; 100% Sesame Oil, M4N 20 mg/mL
  Stability Time at Room Temperature: >3 days
[1]; 100% Sesame Oil, M4N 20 mg/mL, 60° C.
  Dissolution After Heating: Y at 60 °C
[1]; 100% Sesame Oil, M4N 30 mg/mL
  Stability Time at Room Temperature: <3 days
[1]; 100% Sesame Oil, M4N 30 mg/mL, 60° C.
  Dissolution After Heating: Y at 60 °C
[1]; 100% Sesame Oil, M4N 50 mg/mL
  Stability Time at Room Temperature: <1 days
[1]; 100% Sesame Oil, M4N 50 mg/mL, 60° C.
  Dissolution After Heating: Y at 60 °C
[1]; 100% Soybean Oil, M4N 10 mg/mL
  Stability Time at Room Temperature: >7 days
[1]; 100% Soybean Oil, M4N 10 mg/mL, 60° C.
  Dissolution After Heating: Y at 60 °C
[1]; 100% Soybean Oil, M4N 30 mg/mL, 60° C.
  Dissolution After Heating: Y at 60 °C
[1]; 100% Soybean Oil, M4N 50 mg/mL, 60° C.
  Dissolution After Heating: Y at 60 °C
[1]; Peppermint Oil, M4N 1 mg/mL
  Stability Time at Room Temperature: >3 days
[1]; Peppermint Oil, M4N 10 mg/mL
  Stability Time at Room Temperature: >3 days
[1]; Peppermint Oil, M4N 20 mg/mL
  Stability Time at Room Temperature: >3 days
[1]; Peppermint Oil, M4N 40 mg/mL
  Stability Time at Room Temperature: >3 days
[1]; Peppermint Oil, M4N 40 mg/mL, 40° C.
  Dissolution After Heating: Y at 40 °C
[1]; Peppermint Oil, M4N 60 mg/mL
  Stability Time at Room Temperature: <3 days
[1]; Peppermint Oil, M4N 60 mg/mL, 40° C.
  Dissolution After Heating: Y at 40 °C
[1]; Peppermint Oil, M4N 100 mg/mL
  Stability Time at Room Temperature: <1 days
[1]; Peppermint Oil, M4N 100 mg/mL, 40° C.
  Dissolution After Heating: Y at 40 °C
[1]; Peppermint Oil, M4N 125 mg/mL
  Stability Time at Room Temperature: <1 days
[1]; Peppermint Oil, M4N 125 mg/mL, 40° C.
  Dissolution After Heating: Y at 40 °C
[1]; Sesame Oil, Tween ® 20 and Glycerol: 10% Oil emulsion in 90% saline, M4N 2.4 mg/mL
  Stability Time at Room Temperature: <1 days
[1]; M4N 60 mg/mL
  solutions stable: less than 1 day
[1]; M4N 1 and 10 mg/mL
  solutions stable: greater than 3 days
[1]; M4N 20, 40 and 50 mg/mL
  solutions stable: less than 3 days
[1]; olive oil, M4N 30 mg/mL, soluble at 60° C.
  solution after cooling: did not remain in solution after cooling
[1]; M4N 10 mg/mL and 20 mg/mL
  stable at room temperature: more than 3 days
[1]; M4N 30 mg/mL
  stable at room temperature: less than 3 days
[2]; 11 mg/mL M4N, 20% PEG300, 32% HP-β-CD, t = 2 hours
  Observed M4N: 11.5 mg/mL
[2]; 11 mg/mL M4N, 20% PEG300, 32% HP-β-CD, t = 24 hours
  Observed M4N: 11.4 mg/mL
[2]; 11 mg/mL M4N, 25% PEG300, 30% HP-β-CD, t = 2 hours
  Observed M4N: 11.3 mg/mL
[2]; 11 mg/mL M4N, 25% PEG300, 30% HP-β-CD, t = 24 hours
  Observed M4N: 11.3 mg/mL
[2]; 11 mg/mL M4N, 33% PEG300, 27% HP-β-CD, t = 2 hours
  Observed M4N: 11.4 mg/mL
[2]; 11 mg/mL M4N, 33% PEG300, 27% HP-β-CD, t = 24 hours
  Observed M4N: 11.3 mg/mL
[2]; 12 mg/mL M4N, 25% PEG300, 30% HP-β-CD, t = 2 hours
  Observed M4N: 11.8 mg/mL
[2]; 12 mg/mL M4N, 25% PEG300, 30% HP-β-CD, t = 24 hours
  Observed M4N: 11.6 mg/mL
[2]; 13 mg/mL M4N, 25% PEG300, 30% HP-β-CD, t = 2 hours
  Observed M4N: 12.7 mg/mL
[2]; 13 mg/mL M4N, 25% PEG300, 30% HP-β-CD, t = 24 hours
  Observed M4N: 12.7 mg/mL
[2]; 14 mg/mL M4N, 25% PEG300, 30% HP-β-CD, t = 2 hours
  Observed M4N: 13.5 mg/mL
[2]; 14 mg/mL M4N, 25% PEG300, 30% HP-β-CD, t = 24 hours
  Observed M4N: 13.5 mg/mL
[2]; 11-14 mg/mL M4N, 25% PEG 300 and 30% HP-β-CD, 24 hours at room temperature
  stability: stable
